# Patent US12472228B2, “Use of exosome-based delivery of NF-κB inhibitors” (Ilias Biologics Inc., priority 2020, dated 2025)
# B1: srIκB: non-degradable IκBα protein with mutations at serine residues 32 and 36 (protein, listed as Homo sapiens)
# chain: MFQAAERPQEWAMEGPRDGLKKERLLDDRHDAGLDAMKDEEYEQMVKELQEIRLEPQEVPRGSEPWKQQLTEDGDSFLHLAIIHEEKALTMEVIRQVKGDLAFLNFQNNLQQTPLHLAVITNQPEIAEALLGAGCDPELRDFRGNTPLHLACEQGCLASVGVLTQSCTTPHLHSILKATNYNGHTCLHLASIHGYLGIVELLVSLGADVNAQEPCNGRTALHLAVDLQNPDLVSLLLKCGADVNRVTYQGYSPYQLTWGRPSTRIQQQLGQLTLENLQMLPESEDEESYDTESEFTEFTEDELPYDDCVFGGQRLTL
# What was measured:
# [1] = system: experimental ischemic AKI model; conditions: by lowering inflammatory cytokine expression and macrophages/monocyte accumulation; cited from earlier work
# THP-1 cells = assay: LPS-stimulated THP-1 cells, cytokine secretion (ELISA); format: cell-based, human; conditions: JSH-23 50 μM, Exo-srIκB 5×10^6 particles
# Protocol: (A) HEK293-NF-κB-luciferase cells (2×10^4 cells) were cultured either with Exo-Naïve or with Exo-srIκB 2×10^5 particles. After 24 h, the cells were treated with 0.5 ng/ml TNF-α for an additional 18 h. Luciferase activities were measured and normalized. (B) Exo-srIκB dose-dependently repressed NF-κB activation in NF-κB-luciferase cells. (C) THP-1 cells (5×10^5 cells) were stimulated with […] LPS and then treated with Exo-srIκBs 5×10^6 particles. The supernatants were collected and assayed for the production of TNF-α and monocyte chemoattractant protein (MCP)-1. […] Cells were harvested into a single-cell suspension and assessed through flow cytometry using specific phycoerythrin (PE)-conjugated antibodies against human intercellular cell adhesion molecule (ICAM)-1.
# The TNF-α, IL-8 and MCP-1 levels in supernatants collected from THP-1 and HUVEC cultures were measured using commercial ELISA kits (R&D Systems, Minneapolis, MN, USA), and NF-κB activity in HUVECs was measured using the Trans AM NF-κB p65 kit (Active Motif, Carlsbad, CA, USA). TNF-α, CCL-4/macrophage inflammatory protein (MIP)-1β, IL-6, and IL-1β levels in mouse plasma collected through cardiac puncture at the indicated time points after the high-grade CLP procedure were measured using the Mouse Magnetic Luminex eScreening Assay kit (R&D Systems). […]
# lung IRI model = conditions: decreases neutrophil infiltration and pulmonary edema; cited from earlier work
molecule,measurement,setting,value
infliximab: anti-TNF-α agent,effect in the experimental ischemic AKI model,[1],protective effects
Cc1ccc(NCCCc2ccccc2)c(N)c1 [JSH-23],inhibiting LPS-induced NF-κB activation and cytokine production: Exo-srIκB versus JSH-23,THP-1 cells,comparable effects
B1,effect in the lung IRI model,lung IRI model,proven protective effects
